Assay results taken from patent US20060128695A1, “Cyclic nucleotide phosphodiesterase inhibitors, preparation and uses” (NEURO3D, priority 2002, published 2006).

Columns and labels:
[1] = test system: PDE1; test: Selectivity: inhibition of PDE1, radioenzymatic phosphodiesterase assay; assay type: biochemical, bovine; conditions: 10 μM test compound; vascular smooth muscle
Procedure: (§1) A 3 g segment of bovine aortic media cut into pieces with scissors was homogenized with an ultra-turrax then a potter glass/glass homogenizer in 7 volumes by weight of buffer A containing a protease inhibitor cocktail (20 mM Tris-HCl, 0.25 M saccharose, 2 mM magnesium acetate, 1 mM dithiothreitol, 5 mM EGTA, 2000 U/ml aprotinin, 10 mg/l leupeptin and 10 mg/l soya trypsic inhibitor). The homogenizate was centrifuged at 105,000 g for 1 hour. The supernatant was loaded on a DEAE-Sephacel column (15 x 1.6 cm) pre-equilibrated with buffer B (buffer A without the saccharose, EGTA and protease inhibitors). The column was washed until there was no detectable absorption at 280 nm, then eluted with a linear gradient of NaCl (0-0.5 M) in buffer B. 3-ml fractions were collected and enzyme activity was determined under the conditions described hereinbelow to localize the different enzymes PDE1, PDE3, PDE4 and PDE5 which were aliquoted and frozen at −80° C. (Lugnier et al., Biochem. Phamacol., 1986, 35: 1746-1751). PDE2 was prepared from bovine endothelial cells by the same methods (Lugnier and Schini, Biochem. Pharmacol., 1990, 39: 75-84).
(§2) Cyclic nucleotide phosphodiesterase activity was determined by a radioenzymatic method using tritium-labelled cyclic GMP or AMP (1 μM) as substrate (Lugnier et al., 1986). ^3H-labelled adenosine or guanosine monophosphate formed by hydrolysis of the radiolabelled cyclic nucleotide was then converted to ^3H-labelled adenosine or guanosine in a second reaction with […] in excess. The nucleoside formed was separated from the nucleotides by anion exchange chromatography. Nucleoside radioactivity was determined by liquid scintillation counting. […]
(§3) The activity of the compounds was evaluated on other phosphodiesterase isoforms, particularly basal state or calmodulin-activated PDEl from vascular smooth muscle, PDE3, PDE4 and PDE5 from vascular smooth muscle.
(§4) The results obtained are presented in Tables 1 and 2 hereinbelow and are expressed as the percentage inhibition of enzymatic activity produced by […] of the test compound.

[2] = biological target: T1, PDE3 (Bos taurus, UniProt A0A3Q1M1E8); test: Selectivity: inhibition of PDE3, radioenzymatic phosphodiesterase assay; assay type: biochemical, bovine; conditions: 10 μM test compound; vascular smooth muscle; read-out: PDE3 percentage inhibition at 10 μM
T1 sequence (A0A3Q1M1E8 1-1126): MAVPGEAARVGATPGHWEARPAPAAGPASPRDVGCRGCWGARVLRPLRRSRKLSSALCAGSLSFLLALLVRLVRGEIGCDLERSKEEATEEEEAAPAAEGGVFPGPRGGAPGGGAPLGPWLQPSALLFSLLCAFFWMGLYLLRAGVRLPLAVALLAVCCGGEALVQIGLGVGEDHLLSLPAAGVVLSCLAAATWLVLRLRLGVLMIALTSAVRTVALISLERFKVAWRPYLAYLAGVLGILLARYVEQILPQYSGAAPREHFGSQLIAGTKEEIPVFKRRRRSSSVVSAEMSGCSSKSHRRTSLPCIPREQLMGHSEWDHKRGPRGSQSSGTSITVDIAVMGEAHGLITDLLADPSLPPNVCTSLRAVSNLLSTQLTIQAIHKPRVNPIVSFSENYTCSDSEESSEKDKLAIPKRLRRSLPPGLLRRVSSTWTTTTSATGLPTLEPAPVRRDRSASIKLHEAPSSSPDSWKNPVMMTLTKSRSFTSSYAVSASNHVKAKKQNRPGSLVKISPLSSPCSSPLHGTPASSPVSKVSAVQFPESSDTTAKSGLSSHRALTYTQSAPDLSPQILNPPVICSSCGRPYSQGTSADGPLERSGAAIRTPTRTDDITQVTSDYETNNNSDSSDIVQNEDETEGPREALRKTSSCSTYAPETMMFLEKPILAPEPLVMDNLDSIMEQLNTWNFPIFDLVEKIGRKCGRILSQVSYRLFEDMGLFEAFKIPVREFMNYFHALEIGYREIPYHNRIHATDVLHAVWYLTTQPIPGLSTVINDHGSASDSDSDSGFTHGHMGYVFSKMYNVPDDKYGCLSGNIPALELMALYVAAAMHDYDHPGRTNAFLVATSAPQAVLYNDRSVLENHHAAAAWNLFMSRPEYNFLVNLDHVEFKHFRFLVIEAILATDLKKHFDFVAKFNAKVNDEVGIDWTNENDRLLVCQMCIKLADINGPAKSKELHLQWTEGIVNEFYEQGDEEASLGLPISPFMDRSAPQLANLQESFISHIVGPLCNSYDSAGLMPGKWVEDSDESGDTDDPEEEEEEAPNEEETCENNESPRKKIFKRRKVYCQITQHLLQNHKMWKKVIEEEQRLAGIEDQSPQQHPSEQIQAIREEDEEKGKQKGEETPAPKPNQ
Procedure: as §1, §2, §3, §4

[3] = test system: PDE4; test: Selectivity: inhibition of PDE4, radioenzymatic phosphodiesterase assay; assay type: biochemical, bovine; conditions: 10 μM test compound; vascular smooth muscle
Procedure: as §1
Cyclic nucleotide phosphodiesterase activity was determined by a radioenzymatic method using tritium-labelled cyclic GMP or AMP (1 μM) as substrate (Lugnier et al., 1986). ^3H-labelled adenosine or guanosine monophosphate formed by hydrolysis of the radiolabelled cyclic nucleotide was then converted to ^3H-labelled adenosine or guanosine in a second reaction with […] in excess. The nucleoside formed was separated from the nucleotides by anion exchange chromatography. Nucleoside radioactivity was determined by liquid scintillation counting. Enzymatic incubations were carried out under conditions allowing no more than 15% hydrolysis of the substrate; each point was performed in duplicate.
as §3, §4

[4] = test system: mice; test: Elevated plus maze test; assay type: in vivo, Balb/c or Swiss mice; conditions: oral, 1 hour before the test, all doses tested, recorded over 8 minutes, versus control
Text: This test was validated in the rat by Pellow in 1986 and in the mouse by Lister in 1987. It is based on an aversion to open spaces: the open arms elicit anxiety in the animals while the closed arms represent safety. By recording the frequency of entry into each arm, this test evaluates the anxiolytic effect of a molecule in comparison with a reference compound such as buspirone.
Ten to eleven-week old Balb/c or Swiss mice were used for the test. Mice were randomly divided into a control group (treated with the vehicle) and other groups treated with the test compounds.
The test apparatus was a PVC maze with a plexiglass lid, divided into four equivalent exploration arms (45×10 cm), all interconnected by a small platform (10×10 cm). The apparatus was placed 66 crn above the floor. Two arms were opened and the other two closed with a wall (height: 30 cm).
After administration, the mouse was placed on the platform opposite the closed arm. The number of entries and the time spent in each open arm were recorded over 8 minutes.
The treatment was administered 1 hour before the test. The compounds were given orally at different doses. N=10; *** p<0.005 and **** p<0.001 (versus control; Dunnett test).

[5] = test system: mice; test: Swim test; assay type: in vivo, Wistar rats or Swiss mice; conditions: 3 and 30 mg/kg, 20 minutes before the test, versus control group and 0.3 mg/kg group
Procedure: This test is based on the induction of alternative behavior in rodents subjected to an acute stress. In this model, the rat or mouse placed in a water-filled cylinder adopts a particular state of immobility. Onset of said immobility is delayed by antidepressants administered acutely or in repeated doses.
Wistar rats or Swiss mice were used. Animals were isolated for one week with a reverse light/dark cycle, then placed in the water-filled cylinder for 6 minutes. The total immobility time was recorded during the last 4 minutes. The treatment was administered 20 minutes before the test. Four groups were used to test three different doses: one control group treated with the vehicle, and one group for the three doses.
N=10; *** p<0.005 (Dunnett test).

## COc1cc2c(cc1OC)N(C)C(=O)CN=C2c1cccc(C(N)=O)c1 [Compound 5a, 3-(7,8-dimethoxy-1-methyl-2-oxo-2,3-dihydro-1H-1,4-benzodiazepin-5-yl)-benzamide]
[1]
  PDE1 percentage inhibition at 10 μM: 13.2%
[2]
  inhibition at 10 µM: 5%
[3]
  PDE4 percentage inhibition at 10 μM: 16.2%
[4]
  percentage of time spent in the open arms: spent more time in the open arms
[5]
  total immobility time: shorter immobility time
